Data: patent US12246026B2, “Ganaxolone for use in treatment of status epilepticus” (Marinus Pharmaceuticals, Inc., priority 2019, dated 2025)

What was measured:
Solubility of ganaxolone = assay type: physicochemical
Description: Ganaxolone is insoluble in water. […] Ganaxolone has a relatively long half-life—approximately 20 hours in human plasma following oral administration (Nohria, V. and Giller, E., Neurotherapeutics, (2007) 4(1): 102-105). Furthermore, ganaxolone has a short Tmax, which means that therapeutic blood levels are reached quickly.
Ganaxolone formulations suitable for parenteral administration in the methods of the present invention may comprise physiologically acceptable sterile aqueous or non-aqueous solutions, dispersions, suspensions or emulsions, and sterile powders for reconstitution into sterile injectable solutions or dispersions. Examples of suitable aqueous and non-aqueous carriers, diluents, solvents, or vehicles including water, ethanol, polyols (propylene glycol, polyethylene-glycol, glycerol, cremophor and the like), suitable mixtures thereof, vegetable oils (such as olive oil) and injectable organic esters such as ethyl oleate. Additionally, ganaxolone can be dissolved at concentrations of >1 mg/ml using water soluble beta cyclodextrins (e.g. beta-sulfobutyl-cyclodextrin and 2-hydroxypropylbetacyclodextrin). A particularly suitable cyclodextrin is a substituted-β-cyclodextrin is Captisol®. […]

[1] = Human PK in subjects taking strong CYP inducers; assay type: in vivo; conditions: subjects taking strong CYP inducers (carbamazepine and phenytoin)
[2] = Safety in the ganaxolone clinical development program; assay type: in vivo, human
Source text: In the completed placebo-controlled Phase 1, 2, and 3 studies, 0.32% of subjects who received ganaxolone and 0.46% of subjects who received placebo developed elevated LFTs during the study (>3×ULN AST and/or ALT). A subject participating in the ganaxolone paediatric epilepsy study developed liver failure, which was not considered to be related to ganaxolone. The subject was diagnosed with short bowel syndrome, liver steatosis and IgG-cholangitis, which were considered to be the causal factors for the subject's liver failure. There have been no other cases of Hy's Law or liver failure in the ganaxolone development program. […] After cessation of the dosing, plasma ganaxolone levels are expected to drop rapidly, but it is possible that low sub-therapeutic levels persist for several days as ganaxolone is slowly released from tissues.
Ganaxolone has been administered to infants with severe forms of epilepsy as early as 4 months of age. In clinical trials involving administration of ganaxolone over several weeks, the study drug has been tapered off over a 1 to 2-week period.

[3] = Phase 1 IV ganaxolone pharmacokinetics in healthy subjects; assay type: in vivo, human
Description: (§1) A Phase I clinical trial evaluating IV ganaxolone formulation was performed. The clinical trial was designed to investigate the safety, pharmacokinetics, and pharmacodynamics of an intravenous bolus of ganaxolone and continuous intravenous infusion of ganaxolone in 30 healthy subjects. Subjects were administered either an intravenous bolus of ganaxolone in an amount of 10-20 mg for a period of 2 minutes to 1 hour, or an intravenous bolus of ganaxolone in an amount of 6 mg for a period of 5 minutes with a continuous intravenous infusion in an amount of 20 mg/hr for a period of 4 hours.
(§2) There was little or no delay between the appearance of drug in plasma and a change in the BIS score.

healthy subjects = test: Phase 1 IV ganaxolone pharmacodynamics (BIS, EEG) in healthy subjects; assay type: in vivo, human
Description: as §1, §2

[4] = Phase 2 Study 1042-SE-2001 open-label group, GNX plasma concentration and PK modeling; assay type: in vivo, human
Description: These infusion dosing parameters are expected to result in daily doses of ganaxolone of about ≤714 mg/day and Captisol of about ≤50 grams/day. Based on PK modeling, it is predicted that maximum concentrations of ganaxolone should remain within 1,000 ng/mL during infusion, but some variability is expected due to, for example, differences in subjects' weight.
As of 22 Mar. 2019, 5 subjects were enrolled into the Study 1042-SE-2001 open-label group under the original protocol that limits daily Captisol exposure at 35 g/day. […] The initial EEG pattern post-infusion initiation was described by study physicians as a “light” burst suppression that was maintained for several hours in all subjects. […] It was observed that when GNX exposure was lowered (20 mg/hr for 2 hours and ending with 10 mg/hr for the remaining 18 hours on Day 1) in order not to exceed this limit, seizure control could not be maintained and seizure activity (but not SE) re-occurred as evidenced by EEG changes. […] Seizure activity relapsed when plasma concentrations of GNX decreased <500 ng/mL in 4 out of 5 subjects.

subject with SRSE = test: Emergency IND No. 131,642, IV GNX in SRSE, EEG response; assay type: in vivo, human
Description: Under eIND No. 131,642, IV GNX was administered to a subject with SRSE who was unable to maintain status cessation with ketamine and barbiturates. The Day 1 dosage regimen delivered 900 mg of GNX, equating to a 900 to 1200 ng/mL plasma concentration of GNX. As the subject could not be maintained in burst suppression, the clinical team was able to utilize EEG changes to gauge the response (FIG. 11). […] However, due to the dosing plan agreed upon with the FDA with a daily Captisol limit of 63 g/day, the initial 120 mg/hr dose on Day 1 could not be maintained for longer than 1 hour and then had to be decreased to the 30 mg/hr dose. The first seizures re-occurred within 15 to 20 minutes of the change in GNX dose from 120 mg/hr to 30 mg/hr.

[5] = Phase 2 open-label dose range study, safety
Source text: Secondary objectives included assessment of adverse events and evaluation of the pharmacokinetics of IV ganaxolone in patients with SE.

[6] = PK modeling data from 5 subjects

CC(=O)[C@H]1CC[C@H]2[C@@H]3CC[C@H]4C[C@](C)(O)CC[C@]4(C)[C@H]3CC[C@]12C [Ganaxolone, 3α-hydroxy-3β-methyl-5α-pregnan-20-one]
solubility (Solubility of ganaxolone; aqueous with cosolvent or surfactant or cyclodextrin, beta-sulfobutyl-cyclodextrin, 2-hydroxypropylbetacyclodextrin, read-out: dissolved concentration using water soluble beta cyclodextrins): > 1000 µg/mL
solubility in water (Solubility of ganaxolone; water): insoluble
lowering in overall ganaxolone levels and exposure [1]: ~45%
withdrawal symptoms after cessation ([2]; clinical trials, tapered off over 1 to 2 weeks): no reports of withdrawal symptoms
subjects who developed elevated LFTs (>3×ULN AST and/or ALT) ([2]; completed placebo-controlled Phase 1, 2 and 3 studies): 0.32%
trends in ECG intervals, vital signs, physical or neurological examinations ([2]; development program overall): no clinically significant trends
excretion to breast milk ([2]; ganaxolone and its metabolites): excreted to breast milk
ganaxolone levels in plasma ([3]; all 30 healthy subjects, IV bolus or bolus plus infusion): quantifiable
dose relation of plasma concentrations ([3]; healthy subjects, IV): generally proportional to the administered dose
EEG and BIS changes (healthy subjects; Phase 1, FIG. 1): consistent with sedative/anesthetic effects
bispectral index (BIS) score versus plasma concentration (healthy subjects; healthy subjects, IV): higher plasma concentration was associated with lower BIS scores
GNX exposure associated with seizure relapse [4, 6]: < 500 ng/mL
GNX exposure level associated with rapid and complete SE suppression [4, 6]: approximately 1000 ng/mL
GNX plasma concentration at the time of seizure relapse ([4]; Subject 004-101): < 500 ng/mL
GNX plasma concentration at the time of seizure relapse ([4]; Subject 006-101): < 500 ng/mL
GNX plasma concentration at the time of seizure relapse ([4]; Subject 006-102): < 500 ng/mL
dose at which the effect of GNX started (subject with SRSE; eIND 131,642): 60 mg/h
EEG seizure response (subject with SRSE; eIND 131,642, at 120 mg/hr): complete seizure cessation
time to first seizure re-occurrence after dose change (subject with SRSE; eIND 131,642, change from 120 mg/hr to 30 mg/hr): 15 to 20 min
tolerability of GNX infusion ([5]; 17 RSE patients): generally well-tolerated
participants with SAEs (severe sedation) assessed as related to GNX, leading to early discontinuation ([5]; concomitant CNS depressant medications): 2 participants
